Laboratory results as given in BindingDB's records for patent US11753403 (Pic Therapeutics, 2023).

Target: T1, Eukaryotic translation initiation factor 4E [28-217] (Homo sapiens, UniProt P06730)
T1 construct: 28-217
Test: Human eIF4E/4G2 Binding Assay
Experimental: Test compounds (3.43 mM stock in DMSO) were diluted 2-fold in series in DMSO (10 concentration points). Compound solutions (1.2 μl/well) were added into black 384-well polypropylene microplates (Matrix, Thermal Scientific). Twenty-two microliters per well of Assay Buffer (50 mM NaPi, pH 6.5, 50 mM KCl, 1 mM DTT and 0.5 mg/ml gamma globulin) and eight microliters per well of 82.5 nM purified eIF4E in Assay Buffer were added. The samples were incubated at room temperature (20-23° C.) for 4 hours. Biotin labeled 4G2 peptide (Ac-Lys-Gln-Tyr-Asp-Arg-Glu-Phe-Leu-Leu-Asp-Phe-Gln-Phe-Met-Pro-Lys(Aha-Bio)-NH2, 1.75 μM stock in DMSO) was diluted to 0.14 μM in Assay Buffer (without DTT) and 5 μl/well was added. The samples were incubated at room temperature for 20 min. Five microliters per well of 6.4 nM Eu-streptavidin (Eu-SA, Perkin Elmer) and 80 nM Allophycocyanin (APC)-anti His antibody (Columbia Biosciences) in Assay Buffer (without DTT) were then added and the samples were incubated at room temperature for 20 min.

T1 sequence (P06730 28-217): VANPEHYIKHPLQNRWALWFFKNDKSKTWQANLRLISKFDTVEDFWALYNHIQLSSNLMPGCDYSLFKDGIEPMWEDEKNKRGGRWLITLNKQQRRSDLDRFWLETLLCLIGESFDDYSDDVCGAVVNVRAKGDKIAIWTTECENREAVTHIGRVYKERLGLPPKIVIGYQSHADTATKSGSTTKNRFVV

SMILES: O=C(O)CCN(Cc1ccccc1)c1nc(-c2ccc(Cl)c(Cl)c2)c(CN2CCCCC2)s1 [US11753403, Compound I-90]
- IC50: > 10 µM

SMILES: CC(C)Cc1sc(N(CCS(N)(=O)=O)Cc2ccccc2)nc1-c1ccc(Cl)c(Cl)c1 [US11753403, Compound I-98]
- IC50: > 10 µM

SMILES: CC(C)Cc1sc(N(CCC(=O)O)Cc2ccccc2)nc1-c1ccc(-c2ccc(F)cc2)c(Cl)c1 [US11753403, Compound I-104]
- IC50: < 1 µM

SMILES: NC(=O)c1sc(N(CCC(=O)O)Cc2ccccc2)nc1-c1ccc(Cl)c(Cl)c1 [US11753403, Compound I-124]
- IC50: > 10 µM

SMILES: CC(C)Cc1sc(Nc2cccc(C(=O)O)c2)nc1-c1ccc(Cl)c(Cl)c1 [US11753403, Compound I-142]
- IC50: < 1 µM

SMILES: CC(C)Cc1sc(N(CCC(=O)NS(=O)(=O)CCCN)Cc2ccccc2)nc1-c1ccc(Cl)c(Cl)c1 [US11753403, Compound I-186]
- IC50: > 10 µM

SMILES: CC(C)Cc1sc(N(CCC(=O)NCCO)Cc2ccccc2)nc1-c1ccc(Cl)c(Cl)c1 [US11753403, Compound I-194]
- IC50: > 10 µM

SMILES: CC(C)Cc1sc(NCC(Cc2cccc(C(=O)NCCN)c2)C(=O)O)nc1-c1ccc(Cl)c(Cl)c1 (stereo not given) [US11753403, Compound I-204]
- IC50: > 10 µM

SMILES: CC(C)Cc1sc(-c2ccc(NC(=O)c3ccccc3)c(C(=O)O)c2)nc1-c1ccc(Cl)c(Cl)c1 [US11753403, Compound I-237]
- IC50: < 1 µM

SMILES: CC(C)Cc1sc(N2CCN(C(=O)c3cccc(F)c3)C(C(=O)O)C2)nc1-c1ccc(Cl)c(Cl)c1 (stereo not given) [US11753403, Compound I-247]
- IC50: < 1 µM
